According to ChEMBL document CHEMBL1201862, “PubChem BioAssay data set” (2004):
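Results reflect a 48-hour exposure of cells in 96-well plates to compound at five concentrations. The concentration for 50% growth inhibition is given as GI50.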 The source made the active and inactive calls. No stated cut-off is given here; in the data, active = GI50 up to about 1.1 µM and inactive = higher.

How the values were obtained:
Assay in all cases: NCI-60 cell line screen, 48 h
[1] = tested on: OVCAR-3
[2] = tested on: EKVX
[3] = tested on: A549
[4] = tested on: TK-10
[5] = tested on: UACC-257
[6] = tested on: SF-295
[7] = tested on: MDA-N
[8] = tested on: OVCAR-5
[9] = tested on: SNB-75
[10] = tested on: SK-MEL-2
[11] = tested on: 786-0
[12] = tested on: NCI-H522
[13] = tested on: SK-MEL-28
[14] = tested on: M14
[15] = tested on: SK-MEL-5
[16] = tested on: HL-60
[17] = tested on: HOP-92
[18] = tested on: SR
[19] = tested on: SK-OV-3
[20] = tested on: SF-539

Measured: GI50

CCN(CC)Cc1nc2sc3c(c2c(=O)n1-c1ccccc1)CCCC3
inactive: [1] 17.2 µM | [2] 19.8 µM | [3] 20.5 µM | [4] 16.4 µM | [5] 21.2 µM | [6] 23.7 µM | [7] 19.7 µM | [8] 19.7 µM | [9] 18.4 µM | [10] 19.1 µM | [11] 17.7 µM | [12] 21.8 µM | [13] 35.4 µM | [14] 15.9 µM | [15] 16.3 µM | [16] 23.3 µM | [17] 22 µM | [18] 34.5 µM | [19] 23.7 µM

O=C1C2CC=CCC2C(=O)N1n1c(Cc2ccc(Cl)cc2)n[nH]c1=O (stereo unspecified)
inactive: [1] > 100 µM | [2] > 100 µM | [3] > 100 µM | [4] > 100 µM | [5] > 100 µM | [6] > 100 µM | [7] > 100 µM | [8] > 100 µM | [9] > 100 µM | [10] > 100 µM | [11] > 100 µM | [12] > 100 µM | [13] > 100 µM | [14] > 100 µM | [15] > 100 µM | [16] > 100 µM | [17] > 100 µM | [18] > 100 µM | [19] > 100 µM

O=C(O)C/C(=C\c1ccco1)C(=O)O
inactive: [1] > 100 µM | [2] > 100 µM | [3] > 100 µM | [4] > 100 µM | [5] > 100 µM | [6] > 100 µM | [7] > 100 µM | [8] > 100 µM | [9] > 100 µM | [10] > 100 µM | [11] > 100 µM | [12] > 100 µM | [13] > 100 µM | [14] > 100 µM | [15] > 100 µM | [16] > 100 µM | [20] > 100 µM | [18] > 100 µM | [19] > 100 µM

Cc1nc(-c2cc3cc([N+](=O)[O-])ccc3oc2=O)cs1
inactive: [2] > 100 µM | [3] > 100 µM | [4] > 100 µM | [5] > 100 µM | [6] > 100 µM | [7] > 100 µM | [8] > 100 µM | [9] 1.25 µM | [10] > 100 µM | [11] > 100 µM | [13] > 100 µM | [14] > 100 µM | [15] > 100 µM | [16] 31.8 µM | [20] > 100 µM | [17] 67.3 µM | [18] 71.3 µM | [19] > 100 µM

Cc1ccc(S(=O)(=O)C2=C([Si](C)(C)C)C3CC2[C@@H]2C4C=CC(CC4)[C@H]32)cc1 (stereo partly specified)
inactive: [1] 93.8 µM | [2] > 100 µM | [3] > 100 µM | [4] 27 µM | [5] > 100 µM | [6] 28.4 µM | [7] > 100 µM | [8] > 100 µM | [10] 23.3 µM | [11] 34.6 µM | [12] 51.9 µM | [13] > 100 µM | [14] > 100 µM | [15] > 100 µM | [16] > 100 µM | [20] 25.6 µM | [17] 60.7 µM | [18] > 100 µM | [19] 45.1 µM

Oc1c(/N=N\c2ccccc2)c2cccc3ccc4cccc1c4c32
inactive: [1] > 100 µM | [2] > 100 µM | [3] > 100 µM | [4] > 100 µM | [5] > 100 µM | [6] 81.7 µM | [7] > 100 µM | [8] > 100 µM | [9] 38.6 µM | [10] > 100 µM | [11] 43.7 µM | [12] > 100 µM | [13] > 100 µM | [14] > 100 µM | [15] > 100 µM | [17] > 100 µM | [18] 20.9 µM | [19] > 100 µM

N#Cc1c(-c2ccc([N+](=O)[O-])cc2)c2c([nH]c1=O)-c1ccccc1CCC2
inactive: [1] 31.8 µM | [2] > 100 µM | [3] 42.8 µM | [4] > 100 µM | [5] 80 µM | [6] 37.2 µM | [7] 94.2 µM | [8] > 100 µM | [10] 97.9 µM | [11] > 100 µM | [12] 41.5 µM | [13] 47.9 µM | [14] > 100 µM | [15] 51.9 µM | [16] 43 µM | [20] 52.7 µM | [17] 1.48 µM | [18] 29.6 µM | [19] > 100 µM
